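Each compound was tested at five concentrations against cells in 96-well plates for 48 hours. Abbreviation: GI50, concentration required for 50% inhibition of growth. TGI: total growth inhibition.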
Tests used:
Assay in all cases: NCI-60 cell line screen, 48 h
[1] = system: 786-0 renal
[2] = system: A498 renal
[3] = system: A549 NSCLC
[4] = system: ACHN renal
[5] = system: BT-549 breast
[6] = system: CAKI-1 renal
[7] = system: COLO 205 colon
[8] = system: DU-145 prostate
[9] = system: EKVX NSCLC
[10] = system: HCC-2998 colon
[11] = system: HCT-116 colon
[12] = system: HCT-15 colon
[13] = system: HL-60(TB) leukemia
[14] = system: HOP-62 NSCLC
[15] = system: HOP-92 NSCLC
[16] = system: HS 578T breast
[17] = system: HT29 colon
[18] = system: IGROV1 ovarian
[19] = system: LOX IMVI melanoma
[20] = system: M14 melanoma
[21] = system: MALME-3M melanoma
[22] = system: MCF7 breast
[23] = system: MDA-MB-231 breast
[24] = system: MDA-MB-435
[25] = system: MOLT-4 leukemia
[26] = system: NCI-H226 lung
[27] = system: NCI-H23 lung
[28] = system: NCI-H460 lung
[29] = system: NCI-H522 lung
[30] = system: NCI/ADR-RES ovarian
[31] = system: OVCAR-3 ovarian
[32] = system: OVCAR-4 ovarian
[33] = system: OVCAR-5 ovarian
[34] = system: OVCAR-8 ovarian
[35] = system: PC-3 prostate
[36] = system: RXF 393 renal
[37] = system: SF-268 CNS
[38] = system: SF-295 CNS
[39] = system: SF-539 CNS
[40] = system: SK-MEL-2 melanoma
[41] = system: SK-MEL-28 melanoma
[42] = system: SK-MEL-5 melanoma
[43] = system: SK-OV-3 ovarian
[44] = system: SN12C renal
[45] = system: SNB-19 CNS
[46] = system: SNB-75 CNS
[47] = system: SW-620 colon
[48] = system: T-47D breast
[49] = system: TK-10 renal
[50] = system: U251 CNS
[51] = system: UACC-257 melanoma
[52] = system: UACC-62 melanoma
[53] = system: UO-31 renal
[54] = system: CCRF-CEM leukemia
[55] = system: K-562 leukemia
[56] = system: KM12 colon
[57] = system: RPMI-8226 leukemia
[58] = system: SR leukemia

SMILES: CC#CS(=O)(=O)c1ccccc1
- TGI [1]: 16.4 µM
- TGI [2]: 29.3 µM
- TGI [3]: 31.4 µM
- TGI [4]: 12.8 µM
- TGI [5]: 20.8 µM
- TGI [6]: 2.36 µM
- TGI [7]: 24.7 µM
- TGI [8]: 10.2 µM
- TGI [9]: 35.4 µM
- TGI [10]: 13.9 µM
- TGI [11]: 17.6 µM
- TGI [12]: 9.4 µM
- TGI [13]: 3.81 µM
- TGI [14]: 47.2 µM
- TGI [15]: 6.96 µM
- TGI [16]: 41.8 µM
- TGI [17]: 14.4 µM
- TGI [18]: 25.4 µM
- TGI [19]: 21 µM
- TGI [20]: 21.4 µM
- TGI [21]: 12.5 µM
- TGI [22]: 40.9 µM
- TGI [23]: 22.8 µM
- TGI [24]: 22.9 µM
- TGI [25]: 1.43 µM
- TGI [26]: 24.1 µM
- TGI [27]: 18.8 µM
- TGI [28]: 38 µM
- TGI [29]: 3.92 µM
- TGI [30]: 28.8 µM
- TGI [31]: 3.59 µM
- TGI [32]: 11.7 µM
- TGI [33]: 18.2 µM
- TGI [34]: 12.5 µM
- TGI [35]: 25.2 µM
- TGI [36]: 31.8 µM
- TGI [37]: 35.2 µM
- TGI [38]: 14.5 µM
- TGI [39]: 15.5 µM
- TGI [40]: 32.5 µM
- TGI [41]: 12.6 µM
- TGI [42]: 15.4 µM
- TGI [43]: 40.5 µM
- TGI [44]: 19.4 µM
- TGI [45]: 27.2 µM
- TGI [46]: 13.9 µM
- TGI [47]: 16.5 µM
- TGI [48]: 6.22 µM
- TGI [49]: 17.4 µM
- TGI [50]: 25.5 µM
- TGI [51]: 12.1 µM
- TGI [52]: 14.2 µM
- TGI [53]: 3.58 µM

SMILES: Cn1cccc1-c1cc(-c2cccs2)[nH]c(=O)c1C#N
- GI50 [1]: > 100 µM
- TGI [1]: > 100 µM
- GI50 [2]: 17.9 µM
- TGI [2]: > 100 µM
- GI50 [3]: > 100 µM
- TGI [3]: > 100 µM
- GI50 [4]: > 100 µM
- TGI [4]: > 100 µM
- GI50 [5]: > 100 µM
- TGI [5]: > 100 µM
- GI50 [6]: > 100 µM
- TGI [6]: > 100 µM
- GI50 [54]: > 100 µM
- TGI [54]: > 100 µM
- GI50 [7]: > 100 µM
- TGI [7]: > 100 µM
- GI50 [8]: > 100 µM
- TGI [8]: > 100 µM
- GI50 [9]: 52.3 µM
- TGI [9]: > 100 µM
- GI50 [10]: > 100 µM
- TGI [10]: > 100 µM
- GI50 [11]: > 100 µM
- TGI [11]: > 100 µM
- GI50 [12]: > 100 µM
- TGI [12]: > 100 µM
- GI50 [14]: 83.9 µM
- TGI [14]: > 100 µM
- GI50 [16]: > 100 µM
- TGI [16]: > 100 µM
- GI50 [17]: > 100 µM
- TGI [17]: > 100 µM
- GI50 [18]: 23 µM
- TGI [18]: > 100 µM
- GI50 [55]: > 100 µM
- TGI [55]: > 100 µM
- GI50 [56]: > 100 µM
- TGI [56]: > 100 µM
- GI50 [19]: > 100 µM
- TGI [19]: > 100 µM
- GI50 [21]: > 100 µM
- TGI [21]: > 100 µM
- GI50 [22]: > 100 µM
- TGI [22]: > 100 µM
- GI50 [23]: > 100 µM
- TGI [23]: > 100 µM
- GI50 [24]: > 100 µM
- TGI [24]: > 100 µM
- GI50 [25]: > 100 µM
- TGI [25]: > 100 µM
- GI50 [26]: > 100 µM
- TGI [26]: > 100 µM
- GI50 [27]: > 100 µM
- TGI [27]: > 100 µM
- GI50 [28]: 69.6 µM
- TGI [28]: > 100 µM
- GI50 [29]: 25.9 µM
- TGI [29]: > 100 µM
- GI50 [30]: > 100 µM
- TGI [30]: > 100 µM
- GI50 [31]: > 100 µM
- TGI [31]: > 100 µM
- GI50 [32]: > 100 µM
- TGI [32]: > 100 µM
- GI50 [33]: > 100 µM
- TGI [33]: > 100 µM
- GI50 [34]: > 100 µM
- TGI [34]: > 100 µM
- GI50 [35]: > 100 µM
- TGI [35]: > 100 µM
- GI50 [57]: > 100 µM
- TGI [57]: > 100 µM
- GI50 [36]: > 100 µM
- TGI [36]: > 100 µM
- GI50 [37]: 20.6 µM
- TGI [37]: > 100 µM
- GI50 [38]: > 100 µM
- TGI [38]: > 100 µM
- GI50 [39]: > 100 µM
- TGI [39]: > 100 µM
- GI50 [40]: > 100 µM
- TGI [40]: > 100 µM
- GI50 [41]: > 100 µM
- TGI [41]: > 100 µM
- GI50 [42]: > 100 µM
- TGI [42]: > 100 µM
- GI50 [43]: > 100 µM
- TGI [43]: > 100 µM
- GI50 [44]: > 100 µM
- TGI [44]: > 100 µM
- GI50 [45]: > 100 µM
- TGI [45]: > 100 µM
- GI50 [46]: 37.7 µM
- TGI [46]: > 100 µM
- GI50 [58]: > 100 µM
- TGI [58]: > 100 µM
- GI50 [47]: > 100 µM
- TGI [47]: > 100 µM
- GI50 [48]: > 100 µM
- TGI [48]: > 100 µM
- GI50 [49]: > 100 µM
- TGI [49]: > 100 µM
- GI50 [50]: > 100 µM
- TGI [50]: > 100 µM
- GI50 [51]: > 100 µM
- TGI [51]: > 100 µM
- GI50 [52]: 73.1 µM
- TGI [52]: > 100 µM
- GI50 [53]: 13.8 µM
- TGI [53]: 27.5 µM

SMILES: Cc1ccc(OCC2OC(C#N)C(Oc3ccc(C)cc3)C2Oc2ccc(C)cc2)cc1 (stereo not given)
- TGI [1]: > 100 µM
- TGI [2]: > 100 µM
- TGI [3]: > 100 µM
- TGI [5]: > 100 µM
- TGI [6]: > 100 µM
- TGI [54]: > 100 µM
- TGI [7]: > 100 µM
- TGI [8]: > 100 µM
- TGI [9]: > 100 µM
- TGI [10]: > 100 µM
- TGI [11]: > 100 µM
- TGI [12]: > 100 µM
- TGI [13]: > 100 µM
- TGI [14]: > 100 µM
- TGI [16]: > 100 µM
- TGI [17]: > 100 µM
- TGI [18]: > 100 µM
- TGI [55]: > 100 µM
- TGI [56]: > 100 µM
- TGI [20]: > 100 µM
- TGI [22]: > 100 µM
- TGI [23]: > 100 µM
- TGI [24]: > 100 µM
- TGI [25]: > 100 µM
- TGI [26]: > 100 µM
- TGI [27]: > 100 µM
- TGI [28]: > 100 µM
- TGI [29]: > 100 µM
- TGI [30]: > 100 µM
- TGI [31]: > 100 µM
- TGI [32]: > 100 µM
- TGI [33]: > 100 µM
- TGI [34]: > 100 µM
- TGI [35]: > 100 µM
- TGI [57]: > 100 µM
- TGI [36]: > 100 µM
- TGI [37]: > 100 µM
- TGI [38]: > 100 µM
- TGI [39]: > 100 µM
- TGI [40]: > 100 µM
- TGI [41]: > 100 µM
- TGI [42]: > 100 µM
- TGI [43]: > 100 µM
- TGI [44]: > 100 µM
- TGI [45]: > 100 µM
- TGI [46]: > 100 µM
- TGI [58]: > 100 µM
- TGI [47]: > 100 µM
- TGI [48]: > 100 µM
- TGI [50]: > 100 µM
- TGI [52]: > 100 µM
- TGI [53]: > 100 µM
